Reference: patent US20240059671A1, “TYROSINE KINASE 2 (TYK2) DEGRADATION COMPOUNDS AND METHODS OF USE” (CULLGEN (SHANGHAI), INC., priority 2020, published 2024)
One block for each compound: values may come before it.

Target: TYK2 (Homo sapiens, UniProt P29597)
Test: TYK2 protein degradation in NOMO-1 cells by immunoblotting
Assay type: cell-based
Parameters: endogenous in cells
Conditions: NOMO-1 cells
In short: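 Read-out was densitometry of chemiluminescent TYK2 immunoblot bands from RIPA lysates after SDS-PAGE. Before lysis, NOMO-1 cells cultured in RPMI 1640 plus 10% FBS were treated for 16 h at 0.1, 1, 10, 100 and 1000 nM.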

Chain of TYK2 (P29597 whole entry): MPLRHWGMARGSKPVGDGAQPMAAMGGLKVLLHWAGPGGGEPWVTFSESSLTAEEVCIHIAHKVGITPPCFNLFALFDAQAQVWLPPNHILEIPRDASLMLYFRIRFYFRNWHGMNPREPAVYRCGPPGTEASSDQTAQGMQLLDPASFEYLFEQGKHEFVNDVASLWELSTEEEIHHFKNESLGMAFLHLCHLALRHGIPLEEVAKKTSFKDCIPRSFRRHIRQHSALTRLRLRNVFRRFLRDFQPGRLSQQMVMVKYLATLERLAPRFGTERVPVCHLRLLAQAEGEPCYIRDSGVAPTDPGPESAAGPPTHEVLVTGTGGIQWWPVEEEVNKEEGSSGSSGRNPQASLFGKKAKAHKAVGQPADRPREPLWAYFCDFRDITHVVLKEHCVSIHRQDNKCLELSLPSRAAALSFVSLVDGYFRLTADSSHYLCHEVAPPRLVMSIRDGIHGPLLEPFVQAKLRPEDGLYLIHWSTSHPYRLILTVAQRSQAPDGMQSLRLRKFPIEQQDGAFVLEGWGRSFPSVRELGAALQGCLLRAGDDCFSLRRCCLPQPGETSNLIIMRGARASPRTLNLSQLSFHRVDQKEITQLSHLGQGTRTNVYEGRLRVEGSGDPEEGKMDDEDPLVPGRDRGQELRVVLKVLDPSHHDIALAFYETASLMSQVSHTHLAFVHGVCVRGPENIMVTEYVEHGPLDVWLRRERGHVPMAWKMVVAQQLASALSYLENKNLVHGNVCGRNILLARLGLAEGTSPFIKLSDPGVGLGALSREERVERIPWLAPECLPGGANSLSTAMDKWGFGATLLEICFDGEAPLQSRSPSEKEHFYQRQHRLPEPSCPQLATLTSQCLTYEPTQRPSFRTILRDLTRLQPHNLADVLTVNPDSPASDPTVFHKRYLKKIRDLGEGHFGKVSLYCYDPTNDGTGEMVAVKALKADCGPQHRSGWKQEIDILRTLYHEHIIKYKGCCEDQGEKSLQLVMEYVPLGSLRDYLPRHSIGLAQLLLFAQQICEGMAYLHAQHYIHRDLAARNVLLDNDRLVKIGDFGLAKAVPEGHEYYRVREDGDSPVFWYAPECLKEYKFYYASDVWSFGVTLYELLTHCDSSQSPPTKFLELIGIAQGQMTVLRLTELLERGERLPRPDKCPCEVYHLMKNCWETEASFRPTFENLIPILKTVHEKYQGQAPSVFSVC

SMILES: CNC(=O)c1nnc(Nc2ccc(N3CCN(C(=O)CCCCCCCCC(=O)N[C@H](C(=O)N4C[C@H](O)C[C@H]4C(=O)N[C@@H](C)c4ccc(-c5scnc5C)cc4)C(C)(C)C)CC3)cn2)cc1Nc1cccc(-c2ncn(C)n2)c1OC [CPD-114, 6-((5-(4-(10-(((S)-1-((2S,4R)-4-hydroxy-2-(((S)-1-(4-(4-methylthiazol-5-yl)phenyl)ethyl)carbamoyl)pyrrolidin-1-yl)-3,3-dimethyl-1-oxobutan-2-yl)amino)-10-oxodecanoyl)piperazin-1-yl)pyridin-2-yl)amino)-4-((2-methoxy-3-(1-methyl-1H-1,2,4-triazol-3-yl)phenyl)amino)-N-methylpyridazine-3-carboxamide]
TYK2 Degradation (NOMO-1, 10 nM): A (A: ≥60% TYK2 degradation)
TYK2 Degradation (NOMO-1, 100 nM): A (A: ≥60% TYK2 degradation)

SMILES: CNC(=O)c1nnc(Nc2ccc(N3CCN(CCCCCCCC(=O)N[C@H](C(=O)N4C[C@H](O)C[C@H]4C(=O)N[C@@H](C)c4ccc(-c5scnc5C)cc4)C(C)(C)C)CC3)cn2)cc1Nc1cccc(-c2ncn(C)n2)c1OC [CPD-113, 6-((5-(4-(8-(((S)-1-((2S,4R)-4-Hydroxy-2-(((S)-1-(4-(4-methylthiazol-5-yl)phenyl)ethyl)carbamoyl)pyrrolidin-1-yl)-3,3-dimethyl-1-oxobutan-2-yl)amino)-8-oxooctyl)piperazin-1-yl)pyridin-2-yl)amino)-4-((2-methoxy-3-(1-methyl-1H-1,2,4-triazol-3-yl)phenyl)amino)-N-methylpyridazine-3-carboxamide]
TYK2 Degradation (NOMO-1, 10 nM): B (B: <60% TYK2 degradation, and >20% TYK2 degradation)
TYK2 Degradation (NOMO-1, 100 nM): A (A: ≥60% TYK2 degradation)

SMILES: CNC(=O)c1nnc(Nc2ccc(C(=O)NCCCCCCCNc3ccc4c(c3)C(=O)N(C3CCC(=O)NC3=O)C4=O)cn2)cc1Nc1cccc(-c2ncn(C)n2)c1OC (stereo not drawn) [CPD-166, 6-((5-((7-((2-(2,6-dioxopiperidin-3-yl)-1,3-dioxoisoindolin-5-yl)amino)heptyl)carbamoyl)pyridin-2-yl)amino)-4-((2-methoxy-3-(1-methyl-1H-1,2,4-triazol-3-yl)phenyl)amino)-N-methylpyridazine-3-carboxamide]
TYK2 Degradation (NOMO-1, 100 nM): C (C: ≤20% TYK2 degradation)

SMILES: CNC(=O)c1nnc(Nc2ccc(C(=O)NCCCCCCC(=O)N[C@H](C(=O)N3C[C@H](O)C[C@H]3C(=O)N[C@@H](C)c3ccc(-c4scnc4C)cc3)C(C)(C)C)cn2)cc1Nc1cccc(-c2ncn(C)n2)c1OC [CPD-142, 6-((5-((7-(((S)-1-((2S,4R)-4-Hydroxy-2-(((S)-1-(4-(4-methylthiazol-5-yl)phenyl)ethyl)carbamoyl)pyrrolidin-1-yl)-3,3-dimethyl-1-oxobutan-2-yl)amino)-7-oxoheptyl)carbamoyl)pyridin-2-yl)amino)-4-((2-methoxy-3-(1-methyl-1H-1,2,4-triazol-3-yl)phenyl)amino)-N-methylpridazine-3-carboxamide]
TYK2 Degradation (NOMO-1, 10 nM): B (B: <60% TYK2 degradation, and >20% TYK2 degradation)
TYK2 Degradation (NOMO-1, 100 nM): A (A: ≥60% TYK2 degradation)

SMILES: CNC(=O)c1nnc(Nc2ccc(CNC(=O)CCCCC(=O)N[C@H](C(=O)N3C[C@H](O)C[C@H]3C(=O)N[C@@H](C)c3ccc(-c4scnc4C)cc3)C(C)(C)C)cn2)cc1Nc1cccc(-c2ncn(C)n2)c1OC [CPD-129, N1-((S)-1-((2S,4R)-4-Hydroxy-2-(((S)-1-(4-(4-methylthiazol-5-yl)phenyl)ethyl)carbamoyl)pyrrolidin-1-yl)-3,3-dimethyl-1-oxobutan-2-yl)-N6-((6-((5-((2-methoxy-3-(1-methyl-1H-1,2,4-triazol-3-yl)phenyl)amino)-6-(methylcarbamoyl)pyridazin-3-yl)amino)pyridin-3-yl)methyl)adipamide]
TYK2 Degradation (NOMO-1, 10 nM): C (C: ≤20% TYK2 degradation)
TYK2 Degradation (NOMO-1, 100 nM): A (A: ≥60% TYK2 degradation)

SMILES: CNC(=O)c1nnc(Nc2ccc(C(=O)NCCNc3ccc4c(c3)C(=O)N(C3CCC(=O)NC3=O)C4=O)cn2)cc1Nc1cccc(-c2ncn(C)n2)c1OC (stereo not drawn) [CDD-176, 6-((5-((2-((2-(2,6-dioxopiperidin-3-yl)-1,3-dioxoisoindolin-5-yl)amino)ethyl)carbamoyl)pyridin-2-yl)amino)-4-((2-methoxy-3-(1-methyl-1H-1,2,4-triazol-3-yl)phenyl)amino)-N-methylpyridazine-3-carboxamide]
TYK2 Degradation (NOMO-1, 10 nM): C (C: ≤20% TYK2 degradation)
TYK2 Degradation (NOMO-1, 100 nM): C (C: ≤20% TYK2 degradation)

SMILES: CNC(=O)c1nnc(Nc2ccc(C(=O)NCCCCCCCCC(=O)N[C@H](C(=O)N3C[C@H](O)C[C@H]3C(=O)N[C@@H](C)c3ccc(-c4scnc4C)cc3)C(C)(C)C)cn2)cc1Nc1cccc(-c2ncn(C)n2)c1OC [CPD-144, 6-((5-((9-(((S)-1-((2S,4R)-4-hydroxy-2-(((S)-1-(4-(4-methylthiazol-5-yl)phenyl)ethyl)carbamoyl)pyrrolidin-1-yl)-3,3-dimethyl-1-oxobutan-2-yl)amino)-9-oxononyl)carbamoyl)pyridin-2-yl)amino)-4-((2-methoxy-3-(1-methyl-1H-1,2,4-triazol-3-yl)phenyl)amino)-N-methylpyridazine-3-carboxamide]
TYK2 Degradation (NOMO-1, 10 nM): A (A: ≥60% TYK2 degradation)
TYK2 Degradation (NOMO-1, 100 nM): A (A: ≥60% TYK2 degradation)

SMILES: CNC(=O)c1nnc(Nc2ccc(N3CCN(C4CCN(C(=O)CCCCCCCC(=O)N[C@H](C(=O)N5C[C@H](O)C[C@H]5C(=O)N[C@@H](C)c5ccc(-c6scnc6C)cc5)C(C)(C)C)CC4)CC3)cn2)cc1Nc1cccc(-c2ncn(C)n2)c1OC [CPD-150, 6-((5-(4-(1-(9-(((S)-1-((2S,4R)-4-hydroxy-2-(((S)-1-(4-(4-methylthiazol-5-yl)phenyl)ethyl)carbamoyl)pyrrolidin-1-yl)-3,3-dimethyl-1-oxobutan-2-yl)amino)-9-oxononanoyl)piperidin-4-yl)piperazin-1-yl)pyridin-2-yl)amino)-4-((2-methoxy-3-(1-methyl-1H-1,2,4-triazol-3-yl)phenyl)amino)-N-methylpyridazine-3-carboxamide]
TYK2 Degradation (NOMO-1, 10 nM): A (A: ≥60% TYK2 degradation)
TYK2 Degradation (NOMO-1, 100 nM): A (A: ≥60% TYK2 degradation)

Continued, in another order:

TYK2 Degradation (NOMO-1, 100 nM): C (C: ≤20% TYK2 degradation)
SMILES: CNC(=O)c1nnc(Nc2ccc(C#CC3CCN(CCCCC(=O)N[C@H](C(=O)N4C[C@H](O)C[C@H]4C(=O)N[C@@H](C)c4ccc(-c5scnc5C)cc4)C(C)(C)C)CC3)cn2)cc1Nc1cccc(-c2ncn(C)n2)c1OC [CPD-160, 6-((5-((1-(5-(((S)-1-((2S,4R)-4-hydroxy-2-(((S)-1-(4-(4-methylthiazol-5-yl)phenyl)ethyl)carbamoyl)pyrrolidin-1-yl)-3,3-dimethyl-1-oxobutan-2-yl)amino)-5-oxopentyl)piperidin-4-yl)ethynyl)pyridin-2-yl)amino)-4-((2-methoxy-3-(1-methyl-1H-1,2,4-triazol-3-yl)phenyl)amino)-N-methylpyridazine-3-carboxamide]

TYK2 Degradation (NOMO-1, 100 nM): C (C: ≤20% TYK2 degradation)
SMILES: CNC(=O)c1nnc(Nc2ccc(C#CC3CN(C(=O)CCC(=O)N[C@H](C(=O)N4C[C@H](O)C[C@H]4C(=O)N[C@@H](C)c4ccc(-c5scnc5C)cc4)C(C)(C)C)C3)cn2)cc1Nc1cccc(-c2ncn(C)n2)c1OC [CPD-122, 6-((5-((1-(4-(((S)-1-((2S,4R)-4-Hydroxy-2-(((S)-1-(4-(4-methylthiazol-5-yl)phenyl)ethyl)carbamoyl)pyrrolidin-1-yl)-3,3-dimethyl-1-oxobutan-2-yl)amino)-4-oxobutanoyl)azetidin-3-yl)ethynyl)pyridin-2-yl)amino)-4-((2-methoxy-3-(1-methyl-1H-1,2,4-triazol-3-yl)phenyl)amino)-N-methylpyridazine-3-carboxamide]

TYK2 Degradation (NOMO-1, 100 nM): A (A: ≥60% TYK2 degradation)
SMILES: CNC(=O)c1nnc(Nc2ccc(CNC(=O)CCCC(=O)N[C@H](C(=O)N3C[C@H](O)C[C@H]3C(=O)N[C@@H](C)c3ccc(-c4scnc4C)cc3)C(C)(C)C)cn2)cc1Nc1cccc(-c2ncn(C)n2)c1OC [CPD-136, N1-((S)-1-((2S,4R)-4-Hydroxy-2-(((S)-1-(4-(4-methylthiazol-5-yl)phenyl)ethyl)carbamoyl)pyrrolidin-1-yl)-3,3-dimethyl-1-oxobutan-2-yl)-N5-((6-((5-((2-methoxy-3-(1-methyl-1H-1,2,4-triazol-3-yl)phenyl)amino)-6-(methylcarbamoyl)pyridazin-3-yl)amino)pyridin-3-yl)methyl)glutaramide]
TYK2 Degradation (NOMO-1, 10 nM): B (B: <60% TYK2 degradation, and >20% TYK2 degradation)

TYK2 Degradation (NOMO-1, 10 nM): C (C: ≤20% TYK2 degradation)
TYK2 Degradation (NOMO-1, 100 nM): A (A: ≥60% TYK2 degradation)
SMILES: CNC(=O)c1nnc(Nc2ccc(C(=O)NCCCCC(=O)N[C@H](C(=O)N3C[C@H](O)C[C@H]3C(=O)N[C@@H](C)c3ccc(-c4scnc4C)cc3)C(C)(C)C)cn2)cc1Nc1cccc(-c2ncn(C)n2)c1OC [CPD-140, 6-((5-((5-(((S)-1-((2S,4R)-4-Hydroxy-2-(((S)-1-(4-(4-methylthiazol-5-yl)phenyl)ethyl)carbamoyl)pyrrolidin-1-yl)-3,3-dimethyl-1-oxobutan-2-yl)amino)-5-oxopentyl)carbamoyl)pyridin-2-yl)amino)-4-((2-methoxy-3-(1-methyl-1H-1,2,4-triazol-3-yl)phenyl)amino)-N-methylpyridazine-3-carboxamide]
